Laboratory results as given in PubChem BioAssay (NCI).
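Assay format: 96-well plates, 48-hour exposure. The concentration for full growth arrest is given as TGI.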

What was measured:
Test in all cases: NCI-60 cell line screen, 48 h
[1] = system: 786-0 renal
[2] = system: A498 renal
[3] = system: A549 NSCLC
[4] = system: ACHN renal
[5] = system: BT-549 breast
[6] = system: CAKI-1 renal
[7] = system: CCRF-CEM leukemia
[8] = system: COLO 205 colon
[9] = system: DU-145 prostate
[10] = system: EKVX NSCLC
[11] = system: HCC-2998 colon
[12] = system: HCT-116 colon
[13] = system: HCT-15 colon
[14] = system: HL-60(TB) leukemia
[15] = system: HOP-62 NSCLC
[16] = system: HOP-92 NSCLC
[17] = system: HS 578T breast
[18] = system: HT29 colon
[19] = system: IGROV1 ovarian
[20] = system: K-562 leukemia
[21] = system: KM12 colon
[22] = system: LOX IMVI melanoma
[23] = system: M14 melanoma
[24] = system: MALME-3M melanoma
[25] = system: MCF7 breast
[26] = system: MDA-MB-231 breast
[27] = system: MDA-MB-435
[28] = system: MDA-N
[29] = system: MOLT-4 leukemia
[30] = system: NCI-H226 lung
[31] = system: NCI-H23 lung
[32] = system: NCI-H460 lung
[33] = system: NCI-H522 lung
[34] = system: NCI/ADR-RES ovarian
[35] = system: OVCAR-3 ovarian
[36] = system: OVCAR-4 ovarian
[37] = system: OVCAR-5 ovarian
[38] = system: OVCAR-8 ovarian
[39] = system: PC-3 prostate
[40] = system: RPMI-8226 leukemia
[41] = system: RXF 393 renal
[42] = system: SF-268 CNS
[43] = system: SF-295 CNS
[44] = system: SF-539 CNS
[45] = system: SK-MEL-2 melanoma
[46] = system: SK-MEL-5 melanoma
[47] = system: SK-OV-3 ovarian
[48] = system: SN12C renal
[49] = system: SNB-19 CNS
[50] = system: SNB-75 CNS
[51] = system: SW-620 colon
[52] = system: T-47D breast
[53] = system: TK-10 renal
[54] = system: U251 CNS
[55] = system: UACC-257 melanoma
[56] = system: UACC-62 melanoma
[57] = system: UO-31 renal
[58] = system: SK-MEL-28 melanoma
[59] = system: SR leukemia

SMILES: CCOC(=O)/C(=C\c1ccc(C#N)cc1)C(C)=O
- TGI [1]: 32.9 µM
- TGI [2]: 30 µM
- TGI [3]: > 100 µM
- TGI [4]: 68.6 µM
- TGI [5]: 37 µM
- TGI [6]: > 100 µM
- TGI [7]: > 100 µM
- TGI [8]: > 100 µM
- TGI [9]: 37.7 µM
- TGI [10]: > 100 µM
- TGI [11]: 19.6 µM
- TGI [12]: 57.3 µM
- TGI [13]: 40 µM
- TGI [14]: > 100 µM
- TGI [15]: > 100 µM
- TGI [16]: 50.6 µM
- TGI [17]: 88.6 µM
- TGI [18]: > 100 µM
- TGI [19]: 33.9 µM
- TGI [20]: > 100 µM
- TGI [21]: 43 µM
- TGI [22]: 34.5 µM
- TGI [23]: 95.1 µM
- TGI [24]: 31.5 µM
- TGI [25]: 61.9 µM
- TGI [26]: 33.3 µM
- TGI [27]: 98.3 µM
- TGI [28]: > 100 µM
- TGI [29]: > 100 µM
- TGI [30]: 89.3 µM
- TGI [31]: 36.7 µM
- TGI [32]: > 100 µM
- TGI [33]: 24.9 µM
- TGI [34]: > 100 µM
- TGI [35]: > 100 µM
- TGI [36]: 97.9 µM
- TGI [37]: > 100 µM
- TGI [38]: 96.9 µM
- TGI [39]: 39.1 µM
- TGI [40]: 54.5 µM
- TGI [41]: 30.6 µM
- TGI [42]: 87.2 µM
- TGI [43]: > 100 µM
- TGI [44]: > 100 µM
- TGI [45]: 31.3 µM
- TGI [46]: 41 µM
- TGI [47]: > 100 µM
- TGI [48]: 62.8 µM
- TGI [49]: > 100 µM
- TGI [50]: 45.5 µM
- TGI [51]: > 100 µM
- TGI [52]: 68.2 µM
- TGI [53]: 57.1 µM
- TGI [54]: 32.7 µM
- TGI [55]: 43.2 µM
- TGI [56]: 17.5 µM
- TGI [57]: 28 µM

SMILES: COc1ccc2c(c1)-c1[nH]c3ccc(OC)cc3c1CC2
- TGI [1]: 34 µM
- TGI [3]: 30.2 µM
- TGI [4]: 36.5 µM
- TGI [5]: 32.9 µM
- TGI [6]: 34.8 µM
- TGI [7]: 80.6 µM
- TGI [8]: 37.4 µM
- TGI [9]: 32.9 µM
- TGI [10]: 20.8 µM
- TGI [11]: 31.4 µM
- TGI [12]: 32.4 µM
- TGI [13]: 24.8 µM
- TGI [15]: 30.9 µM
- TGI [16]: 36.2 µM
- TGI [17]: 28 µM
- TGI [18]: 24.9 µM
- TGI [19]: 26.8 µM
- TGI [20]: 39.6 µM
- TGI [21]: 19 µM
- TGI [22]: 29.8 µM
- TGI [23]: 29.5 µM
- TGI [24]: 28.7 µM
- TGI [25]: 89.7 µM
- TGI [26]: 35 µM
- TGI [27]: 40.2 µM
- TGI [28]: 30.2 µM
- TGI [29]: 54.4 µM
- TGI [30]: 24.3 µM
- TGI [31]: 25.8 µM
- TGI [32]: 32.9 µM
- TGI [33]: 17.6 µM
- TGI [34]: 24.8 µM
- TGI [35]: 32.9 µM
- TGI [36]: 29.4 µM
- TGI [37]: 28.6 µM
- TGI [38]: 27.3 µM
- TGI [39]: 24.1 µM
- TGI [40]: 48.2 µM
- TGI [42]: 28.1 µM
- TGI [43]: 26.3 µM
- TGI [44]: 33.7 µM
- TGI [45]: 28.4 µM
- TGI [58]: 32.4 µM
- TGI [46]: 30.9 µM
- TGI [47]: 33.8 µM
- TGI [48]: 29.3 µM
- TGI [49]: 30.1 µM
- TGI [50]: 26.9 µM
- TGI [59]: 53.2 µM
- TGI [51]: 49.4 µM
- TGI [52]: 36.6 µM
- TGI [53]: 31.5 µM
- TGI [54]: 39.2 µM
- TGI [55]: 32.4 µM
- TGI [56]: 28.6 µM
- TGI [57]: 31.4 µM
